Earlier results in US6500833B1, “(+)-Hydroxyrisperidone compositions and methods” (priority 1998, dated 2002).

Conditions: condition associated with torsades de pointes

| SMILES | prolongation of QT interval |
| --- | --- |
| Cc1nc2n(c(=O)c1CCN1CCC(c3noc4cc(F)ccc34)CC1)CCCC2 [risperidone, Risperidone] | implicated in a prolongation of QT interval |
| Cc1nc2n(c(=O)c1CCN1CCC(c3noc4cc(F)ccc34)CC1)CCCC2O (racemic) [hydroxyrisperidone, 9-hydroxyrisperidone] | implicated in a prolongation of QT interval |
